Measurements published in patent US6573248B2, “Monocyclic L-nucleosides, analogs and uses thereof” (ICN Pharmaceuticals, Inc., priority 1996, dated 2003).

Row | melting point | SMILES
1 | 193 to 195 °C | NC(=O)c1nc([C@H]2O[C@@H](CO)[C@H](O)[C@@H]2O)n[nH]1 [Compound 68, 3-β-L-Ribofuranosyl-1,2,4-triazole-5-carboxamide]
2 | 210 to 212 °C | NC(=O)c1nn([C@H]2O[C@@H](CO)[C@H](O)[C@@H]2O)nc1C(N)=O [Compound 32, 2-β-L-Ribofuranosyl-1,2,3-triazole-4,5-dicarboxamide]
3 | 224 to 226 °C | NC(=O)c1ncn([C@H]2O[C@@H](CO)[C@H](O)[C@@H]2O)c1C(N)=O [Compound 48, 1-β-L-Ribofuranosylimidazole-4,5-dicarboxamide]
4 | 175 to 177 °C | Cc1cc(=O)[nH]c(=O)n1[C@H]1O[C@@H](CO)[C@H](O)[C@@H]1O [Compound 41, 1-β-L-Ribofuranosyl-6-methyluracil]
5 | 209 to 211 °C | NC(=O)c1cn([C@H]2O[C@@H](CO)[C@H](O)[C@@H]2O)ccc1=O [Compound 34, 1-β-L-ribofuranosylpyridine-4-one-3-carboxamide]
